In article PMC9154192 (PLoS Biology, 2022):
≈ marks a conversion by molar mass, not a printed value.

Tests used:
A549 cell line = conditions: cited from earlier work
M. tuberculosis H37Rv = assay: microbe, parasite or virus in culture; assay type: cell-based, Mycobacterium tuberculosis; conditions: for SI (CC50/MIC): ratio of CC50 for L929 fibroblasts to MIC for strain H37Rv
M. tuberculosis H37Ra = assay: microbe, parasite or virus in culture; assay type: cell-based, Mycobacterium tuberculosis
[1] = system: Murine Raw 264.7 macrophages; assay: in vitro; assay type: cell-based; conditions: RAW, MTT assay (Table S1)
Method: (§1) A549 human pulmonary epithelial cells (KCLB 10185), human embryonic kidney (HEK) 293 cells (KCLB 21573), human THP-1 leukemia cells (KCLB 40202), human neuroblastoma SH-SY5Y cells (KCLB 22266), Murine Raw 264.7 macrophages (KCLB 40071), and L929 murine fibroblasts (KCLB 10001) were purchased from the KCLB (Seoul, Korea). Cytotoxicity testing was performed using the MTT assay and the WST-1 cell viability assay as previously described.

L929 murine fibroblasts = assay: in vitro; assay type: cell-based; conditions: L929, MTT assay (Table S1)
Method: as §1

| SMILES | CC50 (A549 cell line) [µg/mL] | MIC (M. tuberculosis H37Rv) [µg/mL] | SI (CC50/MIC) (M. tuberculosis H37Rv) | MIC (M. tuberculosis H37Ra) [µg/mL] | CC50 [1] [µg/mL] | CC50 (L929 murine fibroblasts) [µg/mL] |
| --- | --- | --- | --- | --- | --- | --- |
| COc1ccc2c3c(c4cc(OC)c(OC)cc4c2c1)CN1CCC[C@H]1C3 [DPG, deoxypergularinine] | 18.7 (≈ 51.5 µM) |  |  |  |  |  |
| COC(=O)/C(=C/c1ccc(OCc2ccccc2)cc1)c1ccc(OC)c(OC)c1 [DPGA3] |  | 3.1 (≈ 7.66 µM) | >32.2 | 3.1 (≈ 7.66 µM) | >100 | >100 |
| CCCCOc1ccc(/C=C(/C(=O)O)c2ccc(OC)c(OC)c2)cc1 [DPGA8] |  | >100 | <0.9 | >100 | >100 | 89.5 (≈ 251 µM) |
| CCCCOc1ccc(/C=C(/C(=O)OC)c2ccc(OC)c(OC)c2)cc1 [DPGA9] |  | 25 (≈ 67.5 µM) | >4.0 | 25 (≈ 67.5 µM) | >100 | >100 |
